Reference: ChEMBL document CHEMBL1201862, “PubChem BioAssay data set” (2004)
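Grown in 96-well plates, cells were treated for 48 hours with each compound at five concentrations. Insufficient inhibition: endpoint recorded as highest concentration tested. GI50 = concentration required for 50% inhibition of growth.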 Activity calls are given as the source filed them. Rule as the data show it: active = GI50 up to about 1.1 µM and inactive = higher.

Key:
Experiment in all cases: NCI-60 cell line screen, 48 h
OVCAR-3 = test system: OVCAR-3
SF-295 = test system: SF-295
UACC-257 = test system: UACC-257
M14 = test system: M14
786-0 = test system: 786-0
OVCAR-8 = test system: OVCAR-8
UO-31 = test system: UO-31
NCI-H460 = test system: NCI-H460
SF-539 = test system: SF-539
EKVX = test system: EKVX
HOP-92 = test system: HOP-92
HCT-15 = test system: HCT-15
NCI-H522 = test system: NCI-H522
ACHN = test system: ACHN
NCI-H23 = test system: NCI-H23
HT-29 = test system: HT-29
COLO 205 = test system: COLO 205
MCF7 = test system: MCF7

SMILES | GI50 (OVCAR-3) | GI50 (SF-295) | GI50 (UACC-257) | GI50 (M14) | GI50 (786-0) | GI50 (OVCAR-8) | GI50 (UO-31) | GI50 (NCI-H460) | GI50 (SF-539) | GI50 (EKVX) | GI50 (HOP-92) | GI50 (HCT-15) | GI50 (NCI-H522) | GI50 (ACHN) | GI50 (NCI-H23) | GI50 (HT-29) | GI50 (COLO 205) | GI50 (MCF7)
C=CCNC1=C(C(=O)OCC)C(=O)CO1 | > 100 µM (inactive) | > 100 µM (inactive) | > 100 µM (inactive) | > 100 µM (inactive) | > 100 µM (inactive) | > 100 µM (inactive) | > 100 µM (inactive) | > 100 µM (inactive) | > 100 µM (inactive) | > 100 µM (inactive) | > 100 µM (inactive) | > 100 µM | > 100 µM (inactive) | > 100 µM (inactive) | > 100 µM (inactive) | > 100 µM (inactive) | – | –
CC1(C)CC(=O)C(CC2C(=O)c3ccccc3C2=O)C(=O)C1 | > 100 µM (inactive) | > 100 µM (inactive) | > 100 µM (inactive) | > 100 µM (inactive) | > 100 µM (inactive) | > 100 µM (inactive) | > 100 µM (inactive) | > 100 µM (inactive) | > 100 µM (inactive) | > 100 µM (inactive) | > 100 µM (inactive) | > 100 µM | > 100 µM (inactive) | > 100 µM (inactive) | > 100 µM (inactive) | > 100 µM (inactive) | > 100 µM (inactive) | –
c1ccc2[nH]c(-c3nc4ccccc4o3)nc2c1 | > 100 µM (inactive) | > 100 µM (inactive) | > 100 µM (inactive) | > 100 µM (inactive) | > 100 µM (inactive) | > 100 µM (inactive) | > 100 µM (inactive) | > 100 µM (inactive) | > 100 µM (inactive) | 8.65 µM (inactive) | > 100 µM (inactive) | > 100 µM | 35.1 µM (inactive) | > 100 µM (inactive) | > 100 µM (inactive) | > 100 µM (inactive) | 49.9 µM (inactive) | –
COc1cc(/C=C2\[C@H]3c4c(c(OC)c(C)c(OC)c4OC)C[C@@H](C(=O)N2Cc2ccccc2)N3C(=O)OCC(C)C)c(OC)c(C)c1OC | > 41.4 µM (inactive) | > 100 µM (inactive) | 16.6 µM (inactive) | > 100 µM (inactive) | > 100 µM (inactive) | > 100 µM (inactive) | > 100 µM (inactive) | – | > 100 µM (inactive) | > 100 µM (inactive) | 2.99 µM (inactive) | > 100 µM | 19.4 µM (inactive) | > 64.3 µM (inactive) | > 100 µM (inactive) | > 84.5 µM (inactive) | > 86.3 µM (inactive) | –
CCOC(=O)CNC1C(NC(C)=O)C(OC)OC2COC(c3ccccc3)OC21 (stereo not drawn) | > 100 µM (inactive) | > 100 µM (inactive) | > 100 µM (inactive) | > 100 µM (inactive) | > 100 µM (inactive) | > 100 µM (inactive) | > 100 µM (inactive) | > 100 µM (inactive) | > 100 µM (inactive) | > 100 µM (inactive) | > 100 µM (inactive) | > 100 µM | > 100 µM (inactive) | > 100 µM (inactive) | > 100 µM (inactive) | > 100 µM (inactive) | > 100 µM (inactive) | –
COc1cc2c(c(OC)c1OC)-c1ccc(SC)c(=O)cc1C(CC(=O)Oc1cccc(C#N)c1)C2 (stereo not drawn) | 0.232 µM (active) | 0.266 µM (active) | 0.516 µM (active) | 0.298 µM (active) | 0.475 µM (active) | 0.423 µM (active) | 1.67 µM (inactive) | 0.365 µM (active) | 0.221 µM (active) | 0.574 µM (active) | 2.31 µM (inactive) | 0.33 µM | 0.187 µM (active) | 0.593 µM (active) | 0.454 µM (active) | 0.276 µM (active) | 0.336 µM (active) | –
O=c1/c(=C/c2ccccc2F)sc2nc3ccccc3n12 | > 100 µM (inactive) | > 100 µM (inactive) | > 100 µM (inactive) | > 100 µM (inactive) | > 100 µM (inactive) | > 100 µM (inactive) | > 100 µM (inactive) | > 100 µM (inactive) | 74.3 µM (inactive) | > 100 µM (inactive) | > 100 µM (inactive) | > 100 µM | 92.7 µM (inactive) | > 100 µM (inactive) | > 100 µM (inactive) | > 100 µM (inactive) | – | –
Cc1c(C(=O)CSc2nc3ccccc3[nH]2)c(=O)n(-c2ccccc2)n1C | 41.1 µM (inactive) | > 100 µM (inactive) | > 100 µM (inactive) | > 100 µM (inactive) | > 100 µM (inactive) | > 100 µM (inactive) | > 100 µM (inactive) | > 100 µM (inactive) | > 100 µM (inactive) | – | > 100 µM (inactive) | > 100 µM | > 100 µM (inactive) | > 100 µM (inactive) | > 100 µM (inactive) | > 100 µM (inactive) | > 100 µM (inactive) | –
COc1cccc2c1C(=O)c1c(O)c3c(c(O)c1C2=O)C[C@@](O)(C(C)O)C[C@@H]3OC1CC(N)C(O)C(C)O1 (stereo partly drawn) | 2.4 µM (inactive) | 1.26 µM (inactive) | 1.42 µM (inactive) | 3.02 µM (inactive) | 0.644 µM (active) | 1.14 µM (inactive) | 38.5 µM (inactive) | 0.329 µM (active) | 0.869 µM (active) | 1.18 µM (inactive) | 0.502 µM (active) | 8.28 µM | 0.57 µM (active) | 1.51 µM (inactive) | 0.553 µM (active) | 2.21 µM (inactive) | 1.41 µM (inactive) | 738 nM (active)
O=C(CC1(O)C(=O)Nc2c(Cl)cc(Cl)cc21)c1ccccc1 (stereo not drawn) | > 100 µM (inactive) | 52.6 µM (inactive) | 57 µM (inactive) | > 100 µM (inactive) | > 100 µM (inactive) | 71.8 µM (inactive) | 52.1 µM (inactive) | > 100 µM (inactive) | > 100 µM (inactive) | 82.4 µM (inactive) | > 100 µM (inactive) | 80.9 µM | 55.1 µM (inactive) | > 100 µM (inactive) | 77.6 µM (inactive) | 31.6 µM (inactive) | > 100 µM (inactive) | –
O=C1OC(O)C(Oc2c(Cl)cccc2Cl)=C1Cl (stereo not drawn) | 13.5 µM (inactive) | 17.5 µM (inactive) | 19.5 µM (inactive) | 17 µM (inactive) | 17.1 µM (inactive) | 17.5 µM (inactive) | 14.1 µM (inactive) | 15.5 µM (inactive) | 17 µM (inactive) | 29.6 µM (inactive) | 18 µM (inactive) | 15.6 µM | 12.5 µM (inactive) | 17.2 µM (inactive) | 17.7 µM (inactive) | 18.4 µM (inactive) | 16.5 µM (inactive) | –
CC(C(=O)c1ccccc1)C1(O)C(=O)Nc2ccccc21 (stereo not drawn) | > 100 µM (inactive) | > 100 µM (inactive) | > 100 µM (inactive) | > 100 µM (inactive) | > 100 µM (inactive) | – | > 100 µM (inactive) | > 100 µM (inactive) | > 100 µM (inactive) | > 100 µM (inactive) | > 100 µM (inactive) | > 100 µM | > 100 µM (inactive) | > 100 µM (inactive) | > 100 µM (inactive) | > 100 µM (inactive) | > 100 µM (inactive) | –
N#CC1=C(N)N2C(=O)/C(=C/c3ccccc3)SC2C(c2nc3ccccc3[nH]2)=C1c1ccccc1 (stereo not drawn) | 1.89 µM (inactive) | 2.53 µM (inactive) | 4.55 µM (inactive) | 2.44 µM (inactive) | 2.72 µM (inactive) | 2.46 µM (inactive) | 1.93 µM (inactive) | 3.09 µM (inactive) | 1.91 µM (inactive) | 2.23 µM (inactive) | 0.687 µM (active) | 2.95 µM | 1.86 µM (inactive) | 3.67 µM (inactive) | 1.85 µM (inactive) | 4.03 µM (inactive) | 5.98 µM (inactive) | –
CCCCN(CCCC)/C(=N\C#N)NCc1ccccc1 | 13.6 µM (inactive) | 14.3 µM (inactive) | 27.4 µM (inactive) | 22.3 µM (inactive) | 19 µM (inactive) | 26.1 µM (inactive) | 11.2 µM (inactive) | 13.9 µM (inactive) | 23.8 µM (inactive) | 19.6 µM (inactive) | 14.4 µM (inactive) | 15 µM | 3.95 µM (inactive) | 26.2 µM (inactive) | 27.1 µM (inactive) | 16.5 µM (inactive) | 16.4 µM (inactive) | –
Cc1cc(NS(=O)(=O)c2ccc(NC(=O)c3ccc(Cl)c4c(Nc5ccc(S(N)(=O)=O)cc5)c5ccccc5nc34)cc2)no1 | 20 µM (inactive) | 25.1 µM (inactive) | 24 µM (inactive) | 26.9 µM (inactive) | 18.3 µM (inactive) | 17.9 µM (inactive) | 23.2 µM (inactive) | 25.8 µM (inactive) | 17.3 µM (inactive) | 33.1 µM (inactive) | 19.7 µM (inactive) | > 100 µM | 11 µM (inactive) | 29.1 µM (inactive) | 23.4 µM (inactive) | 22.2 µM (inactive) | 18.7 µM (inactive) | –
CC(=O)NC(CCCCN)C(=O)NCc1ccccc1 (stereo not drawn) | > 100 µM (inactive) | > 100 µM (inactive) | > 100 µM (inactive) | > 100 µM (inactive) | > 100 µM (inactive) | > 100 µM (inactive) | > 100 µM (inactive) | > 100 µM (inactive) | > 100 µM (inactive) | > 100 µM (inactive) | > 100 µM (inactive) | > 100 µM | > 100 µM (inactive) | > 100 µM (inactive) | > 100 µM (inactive) | > 100 µM (inactive) | > 100 µM (inactive) | –
